In PMC4178172, “Molecular Determinants of Agonist Selectivity in Glutamate-Gated Chloride Channels Which Likely Explain the Agonist Selectivity of the Vertebrate Glycine and GABAA-ρ Receptors” (PLoS ONE, 2014):

Tests used:
GluClAc2 = target: T1, GluClAc2 (Aplysia californica, UniProt C7DLK0, Y161A); assay: whole-cell patch clamp, […] glutamate; format: cell-based
T1 construct: homomeric receptor expressed in CHO-K1 cells
T1 sequence (C7DLK0 32-429 Y161A): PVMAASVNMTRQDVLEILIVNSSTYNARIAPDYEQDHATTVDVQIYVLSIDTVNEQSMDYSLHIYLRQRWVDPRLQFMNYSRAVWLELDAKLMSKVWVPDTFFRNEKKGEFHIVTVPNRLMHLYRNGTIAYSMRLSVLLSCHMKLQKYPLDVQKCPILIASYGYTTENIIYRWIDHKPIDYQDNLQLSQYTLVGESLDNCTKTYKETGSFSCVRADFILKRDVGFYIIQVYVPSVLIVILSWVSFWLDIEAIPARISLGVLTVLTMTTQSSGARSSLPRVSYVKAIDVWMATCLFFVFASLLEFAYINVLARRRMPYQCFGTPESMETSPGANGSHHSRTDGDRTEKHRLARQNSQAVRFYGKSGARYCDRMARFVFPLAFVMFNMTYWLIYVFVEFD

GluClα2b = target: T2, GluClα2b (Caenorhabditis elegans, UniProt O17548, R111L); assay: whole-cell patch clamp, […] glutamate; format: cell-based
T2 construct: gene avr-15; homomeric receptor expressed in CHO-K1 cells
T2 sequence (O17548 21-478 R111L): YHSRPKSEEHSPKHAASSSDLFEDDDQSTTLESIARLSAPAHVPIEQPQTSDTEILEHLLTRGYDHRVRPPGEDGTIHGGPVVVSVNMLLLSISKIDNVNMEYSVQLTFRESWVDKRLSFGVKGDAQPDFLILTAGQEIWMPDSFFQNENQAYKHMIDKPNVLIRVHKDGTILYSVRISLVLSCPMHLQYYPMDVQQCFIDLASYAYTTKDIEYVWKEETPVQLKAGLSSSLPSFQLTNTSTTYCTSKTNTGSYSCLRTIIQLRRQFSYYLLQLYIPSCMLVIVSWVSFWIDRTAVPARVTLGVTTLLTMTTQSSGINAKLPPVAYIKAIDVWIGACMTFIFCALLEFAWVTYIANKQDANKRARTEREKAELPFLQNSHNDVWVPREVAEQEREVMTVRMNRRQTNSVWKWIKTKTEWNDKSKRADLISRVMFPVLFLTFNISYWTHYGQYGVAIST

In the case of N[C@@H](CCC(=O)O)C(=O)O [glutamate], the “whole-cell patch clamp, 1 mM glutamate” value (GluClAc2) is reported as “its mutation to an alanine failed to cause any noticeable change in the response to glutamate” and the “whole-cell patch clamp, 1-100 mM glutamate” value (GluClα2b) is reported as “this mutation did not impede a robust response to glutamate at higher concentrations”.
